Measurements reported in PubChem BioAssay AID1117361 (Southern Research Institute, 2015).

biological target: Protein Tat (Human immunodeficiency virus type 1 group M subtype B (isolate HXB2)) (UniProt P04608); assay: HIV-1 Tat–TAR interaction blockers – biochemical, fluorescence polarization, FAM-labeled TAR RNA, counter-screen for Vif-APOBEC3G degradation inhibitor project, dose response (AID 1117361); settings: Tat-TAR RNA binding
Sequence (P04608 whole entry, looked up): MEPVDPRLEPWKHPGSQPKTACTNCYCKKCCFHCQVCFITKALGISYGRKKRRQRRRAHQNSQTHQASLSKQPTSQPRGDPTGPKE

Structure (SMILES)	IC50
CN1CCc2c(sc3c2c(NCc2ccco2)nc2nnnn23)C1	79.8 µM
CCN(CC(=O)Nc1c(F)cccc1F)C(=O)CSC(=S)N1CCCC1	75.6 µM
O=C1CC(Nc2ccc(N3CCOCC3)cc2)C(=O)N1Cc1ccccc1 (stereo unspecified)	15.4 µM
Cc1ccc(C=C2C(Cl)=C(Cl)C(Cl)=C2Cl)cc1	4.67 µM
S=c1[nH]nc(C2CC2)n1Cc1ccco1	45.9 µM
NCCc1c[nH]c2ccccc12	11.8 µM
O=C(NCc1ccccn1)c1coc(=O)c(Br)c1	88.3 µM
COc1ccccc1NC(=O)CSc1nnc(Cc2cc(=O)[nH]c(=O)[nH]2)n1-c1ccccc1	66.5 µM
O=[n+]1c2c(n([O-])c3cc(Cl)ccc31)CCCC2	42.9 µM
COC(=O)c1ccccc1NC(=O)CCS(=O)(=O)c1ccc(Br)cc1	18.4 µM
Cc1cc(C(=O)CSc2nc3ccccc3c(=O)[nH]2)c(C)n1C	49.2 µM
CNc1ccc(Br)cc(C(=O)/C=C/c2ccc(Cl)cc2Cl)c1=O	9.56 µM
CCN1CCc2c(C#N)c(NCc3ccccc3)nc(N(CC)CC)c2C1	59.4 µM
CCCCC1=CC2=CC(=O)C(C)(OC(=O)c3cnc4ccccc4n3)C(=O)C2=CO1 (stereo unspecified)	7.3 µM
O=S(=O)(O)c1cc(Cl)cc(N=Nc2ccc(O)cc2O)c1O	22.5 µM
O=C(O)c1ccc2c(c1)[C@@H]1C=CC[C@@H]1[C@H](c1ccccn1)N2	7.1 µM
CC1CCN(S(=O)(=O)c2ccc(C(=O)NCc3ccc4c(c3)OCO4)cc2)CC1	95.7 µM
O=C(COC(=O)c1cc(-c2ccco2)nc2ccccc12)NCc1ccc2c(c1)OCO2	18.2 µM
O=C(NN1C(=O)/C(=C/C=C/c2ccco2)SC1=S)c1ccncc1	2.69 µM

Structure (SMILES)	IC50
c1cn2cc(CSC3CCCCC3)nc2s1	63.8 µM
O=C(O)CCCNc1cc(N2CCC3(CC2)OCCO3)c2noc3c2c1C(=O)c1ccccc1-3	3.59 µM
Cc1cc(C(=O)NCCCN2CCCC2=O)no1	24 µM
O=C1NC(=S)NC1=Cc1ccco1	35.7 µM
Oc1ccccc1/C=N/c1c(-c2ccco2)nc2ccccn12	2.97 µM
CCN(CC)c1ccc(/C=N/n2c(C)cc(C)cc2=O)cc1	5.27 µM
COc1ccc2c(c1OC)C(=O)OC2CC(=O)c1ccc(O)c(O)c1 (stereo unspecified)	80.5 µM
Cn1c(N)c(C(=O)COC(=O)C2CCCCC2)c(=O)n(C)c1=O	76.2 µM
CC(/C=N/n1c(-c2ccncc2)n[nH]c1=S)=C\c1ccco1	8.22 µM
COC(=O)c1ccc(COc2ccc(/C=N/Nc3cccc(C(=O)O)c3)cc2)cc1	62.4 µM
O=S(=O)(O)c1cc(O)c2c(O)c(N=Nc3cc(Cl)ccc3O)c(S(=O)(=O)O)cc2c1	15.9 µM
CCN(CC)S(=O)(=O)c1cccc(C(=O)N/N=C/c2ccc(O)c(O)c2O)c1	92.7 µM
N#CC1=C(N)C2=C(N3CCCCC3)CCCC2C1(C#N)C#N (stereo unspecified)	5.45 µM
O=C(O)C1Nc2c(Cl)cc(Cl)c(Cl)c2C2C=CCC12 (stereo unspecified)	45.9 µM
CCCNC1=C(C)C(=O)C2=C(C1=O)C(COC(N)=O)[C@]1(OC)C3NC3CN21 (stereo partly specified)	22.7 µM
Oc1cc2c(cc1O)[C@H]1c3ccc(O)c(O)c3OC[C@@]1(O)C2	15.7 µM
C=CCN=c1scc(-c2ccco2)n1/N=C/c1ccc(O)c(O)c1O	35.4 µM
CC(=O)OCCCNc1cc(Sc2nc3ccccc3s2)c2nonc2c1[N+](=O)[O-]	3.41 µM
O=C(CCN1CCN(c2ccccc2)CC1)N/N=C/c1ccc(O)c(O)c1O	4.87 µM

Structure (SMILES)	IC50
COC(=O)/C(=N/Nc1ccccc1C)N1CCCc2ccccc21	29.2 µM
CC1Cc2ccccc2N1Cc1cc(=O)n2ccsc2n1 (stereo unspecified)	10 µM
CC(=O)c1ccc2c(c1)C1C=CCC1C(c1ccncc1)N2 (stereo unspecified)	36.6 µM
CC1CCCN(Cc2c(O)ccc3c2O/C(=C\c2ccco2)C3=O)C1 (stereo unspecified)	5.6 µM
CCOC(=O)Cn1nnnc1C(C(C)C)N(Cc1cc2c(C)cc(C)cc2[nH]c1=O)C1CCCC1 (stereo unspecified)	67.6 µM
COc1cccc(-c2cn3nc4c(nc3n2)CCCC4)c1	100 µM
Cc1ccc(N2C(=O)/C(=C\c3ccco3)SC2=S)cc1	36 µM
CCOC(=O)C1=C(N)n2c(s/c(=C/c3ccco3)c2=O)=C(C(=O)OC)C1c1ccco1 (stereo unspecified)	9.78 µM
COC(=O)CCC(=O)OC1(C)C(=O)C=C2C=C3CCCN3C=C2C1=O (stereo unspecified)	11.1 µM
CC1(OC(=O)CCc2ccccc2)C(=O)C=C2C=C(c3ccsc3)OC=C2C1=O (stereo unspecified)	65.8 µM
CC(=C/c1ccco1)/C=N/NC(=O)Cc1cccn1C	10.7 µM
Cc1cccc(-n2c(Cc3cc(=O)[nH]c(=O)[nH]3)nnc2SCC(=O)NCC2CCCO2)c1 (stereo unspecified)	58.5 µM
O=C1CC(/C=C/c2ccco2)=Nc2ccccc2N1	6.84 µM
O=C(/C(=N/N=C/c1ccc(O)c(O)c1O)c1ccccc1)c1ccccc1	35.2 µM
Cn1cnnc1SCC(=O)Nc1ncc([N+](=O)[O-])s1	58.2 µM
O=C(O)C1Nc2c(C(=O)N3CCOCC3)cccc2C2C=CCC12 (stereo unspecified)	8.99 µM
COc1ccc(-c2cc(C(=O)N/N=C/c3ccc(OC)c(COCC(F)(F)C(F)F)c3)c3ccccc3n2)c(OC)c1	99.4 µM
CC(=C/C(=O)O)/C=C/c1ccc(Cl)o1	92 µM
